What was measured:
Test in all cases: relative viability (nuclei count vs DMSO), 5 days (fraction); higher = more cells survive
A-427 = test system: A-427
Method in brief: (§1)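 Relative viability divides the nuclei count in treated wells by that in vehicle wells. Lung cancer cell lines were seeded in 1536-well plates, dosed by pin tool the next day, and fixed and stained after 5 days in one step with final 0.05% Triton X-100, 1% formaldehyde and 1 ug/ml Hoechst. Dosing was a single drug or a fixed anchor-drug dose plus five library-drug doses (not always all listed) in √10 steps, and values are medians of duplicate plates imaged at 4×.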

COR-L 105 = test system: COR-L 105
Method in brief: as §1

EPLC-272H = test system: EPLC-272H
Method in brief: as §1

HCC-366 = test system: HCC-366
Method in brief: as §1

HCC-78 = test system: HCC-78
Method in brief: as §1

HOP-62 = test system: HOP-62
Method in brief: as §1

LC-2-ad = test system: LC-2-ad
Method in brief: as §1

LCLC-97TM1 = test system: LCLC-97TM1
Method in brief: as §1

LU99A = test system: LU99A
Method in brief: as §1

LXF-289 = test system: LXF-289
Method in brief: as §1

NCI-H1755 = test system: NCI-H1755
Method in brief: as §1

NCI-H1793 = test system: NCI-H1793
Method in brief: as §1

NCI-H1915 = test system: NCI-H1915
Method in brief: as §1

NCI-H1944 = test system: NCI-H1944
Method in brief: as §1

NCI-H1975 = test system: NCI-H1975
Method in brief: as §1

NCI-H2085 = test system: NCI-H2085
Method in brief: as §1

NCI-H2170 = test system: NCI-H2170
Method in brief: as §1

NCI-H2342 = test system: NCI-H2342
Method in brief: as §1

NCI-H358 = test system: NCI-H358
Method in brief: as §1

NCI-H460 = test system: NCI-H460
Method in brief: as §1

SK-LU-1 = test system: SK-LU-1
Method in brief: as §1

SW 900 = test system: SW 900
Method in brief: as §1

UMC-11 = test system: UMC-11
Method in brief: as §1

CC(C)Oc1cc(Nc2nc(N[C@@H](C)c3ccc(F)cn3)ncc2Cl)n[nH]1 [AZ23] + O=C(CCCCCCC(=O)Nc1ccccc1)NO [Vorinostat] (partner 1 µM)
relative viability (A-427; first compound 0.01 µM): 0.699
relative viability (A-427; first compound 0.03162 µM): 0.892
relative viability (A-427; first compound 0.3162 µM): 0.988
relative viability (COR-L 105; first compound 0.01 µM): 0.698
relative viability (COR-L 105; first compound 0.03162 µM): 0.799
relative viability (COR-L 105; first compound 0.3162 µM): 0.841
relative viability (EPLC-272H; first compound 0.03162 µM): 0.543
relative viability (EPLC-272H; first compound 0.3162 µM): 0.423
relative viability (HCC-366; first compound 0.01 µM): 0.299
relative viability (HCC-366; first compound 0.03162 µM): 0.428
relative viability (HCC-366; first compound 0.3162 µM): 0.441
relative viability (HCC-78; first compound 0.01 µM): 0.432
relative viability (HCC-78; first compound 0.03162 µM): 0.401
relative viability (HCC-78; first compound 0.3162 µM): 0.341
relative viability (HOP-62; first compound 0.01 µM): 0.527
relative viability (HOP-62; first compound 0.03162 µM): 0.765
relative viability (HOP-62; first compound 0.3162 µM): 0.733
relative viability (LC-2-ad; first compound 0.01 µM): 0.86
relative viability (LC-2-ad; first compound 0.03162 µM): 0.789
relative viability (LC-2-ad; first compound 0.3162 µM): 0.716
relative viability (LCLC-97TM1; first compound 0.01 µM): 0.582
relative viability (LCLC-97TM1; first compound 0.03162 µM): 0.885
relative viability (LCLC-97TM1; first compound 0.3162 µM): 0.396
relative viability (LU99A; first compound 0.01 µM): 0.516
relative viability (LU99A; first compound 0.03162 µM): 0.6
relative viability (LU99A; first compound 0.3162 µM): 0.493
relative viability (LXF-289; first compound 0.01 µM): 0.949
relative viability (LXF-289; first compound 0.03162 µM): 0.776
relative viability (LXF-289; first compound 0.3162 µM): 0.737
relative viability (NCI-H1755; first compound 0.01 µM): 0.854
relative viability (NCI-H1755; first compound 0.03162 µM): 0.714
relative viability (NCI-H1755; first compound 0.3162 µM): 0.805
relative viability (NCI-H1793; first compound 0.01 µM): 0.679
relative viability (NCI-H1793; first compound 0.03162 µM): 0.811
relative viability (NCI-H1793; first compound 0.3162 µM): 0.892
relative viability (NCI-H1915; first compound 0.01 µM): 0.575
relative viability (NCI-H1915; first compound 0.03162 µM): 0.526
relative viability (NCI-H1915; first compound 0.3162 µM): 0.58
relative viability (NCI-H1944; first compound 0.01 µM): 0.409
relative viability (NCI-H1944; first compound 0.03162 µM): 0.625
relative viability (NCI-H1944; first compound 0.3162 µM): 0.631
relative viability (NCI-H1975; first compound 0.01 µM): 0.734
relative viability (NCI-H1975; first compound 0.03162 µM): 0.738
relative viability (NCI-H1975; first compound 0.3162 µM): 0.731
relative viability (NCI-H2085; first compound 0.01 µM): 0.662
relative viability (NCI-H2085; first compound 0.03162 µM): 0.88
relative viability (NCI-H2085; first compound 0.3162 µM): 0.755
relative viability (NCI-H2170; first compound 0.01 µM): 0.958
relative viability (NCI-H2170; first compound 0.03162 µM): 0.937
relative viability (NCI-H2170; first compound 0.3162 µM): 0.906
relative viability (NCI-H2342; first compound 0.01 µM): 0.619
relative viability (NCI-H2342; first compound 0.03162 µM): 0.74
relative viability (NCI-H2342; first compound 0.3162 µM): 0.686
relative viability (NCI-H358; first compound 0.01 µM): 0.631
relative viability (NCI-H358; first compound 0.03162 µM): 0.718
relative viability (NCI-H358; first compound 0.3162 µM): 0.758
relative viability (NCI-H460; first compound 0.01 µM): 0.252
relative viability (NCI-H460; first compound 0.03162 µM): 1.06
relative viability (NCI-H460; first compound 0.3162 µM): 0.774
relative viability (SK-LU-1; first compound 0.03162 µM): 0.801
relative viability (SK-LU-1; first compound 0.3162 µM): 0.759
relative viability (SW 900; first compound 0.01 µM): 0.367
relative viability (SW 900; first compound 0.3162 µM): 0.544
relative viability (UMC-11; first compound 0.01 µM): 0.281
relative viability (UMC-11; first compound 0.03162 µM): 0.384
relative viability (UMC-11; first compound 0.3162 µM): 0.357

— the supplement of paper PMC10307832
